Measured values from patent publication US20230047961A1, “THE CHOLESTEROL-SYNTESIS INTERMEDIATES FOR TREATMENT DEMYELINATING DISORDERS” (priority 2019, published 2023).
Entries after “also recorded” stand apart in the source; their conditions may differ.

Assays:
[1] = test system: lysolecithin induced lesions; assay: Remyelination in lysolecithin induced spinal cord lesions; assay type: in vivo, mouse; conditions: 14 days post lesion
Description: Focal spinal cord demyelinating lesions were induced under MMF anesthesia (1.0 mg kg^−1 midazolam, 0.05 mg kg^−1 medetomidine and 0.02 mg kg^−1 fentanyl) by stereotactic injection of 1 μl lysolecithin (1%, from egg yolk, alpha-lysophosphatidyl-choline, Sigma) into the left and right ventro-lateral funiculus at Th10 of 8-week old animals. The injection was performed at a rate of ˜1 μl min^−1. This procedure created fusiform demyelinating lesions, 5-6 mm in length. At the day of injection, mice were randomly assigned to normal or 0.5% [v/w] squalene supplemented chow for 14 days, after which the animals were killed, and the spinal cord processed for histology. For serum isolation, blood was collected by cardiac puncture, and serum was prepared after 4 h clotting by centrifugation.
Mice were perfused with 4% paraformaldehyde (PFA). Spinal cord tissue was postfixed overnight, embedded in paraffin and cut into […] sections (HMP 110, MICROM). For immunohistological analyses, sections were deparaffinized followed by antigen-retrieval in sodium citrate buffer (0.01 M, pH 6.0). For immunofluorescence, sections were blocked with serum free protein block (Dako). Primary antibodies were diluted in 2% bovine serum albumin (BSA)/PBS and incubated for 48 h followed by fluorophor coupled secondary antibodies. Lesion area (DAPI clustered nuclei), oligodendrocyte cell number (CAll, carbonic anhydrase 2) and myelin positive area (MBP, myelin basic protein) were evaluated.

[2] = test system: inflammatory cells in brain and spinal cord tissue; assay: Flow cytometry of inflammatory cells in brain and spinal cord of Plp1-tg mice; assay type: in vivo, mouse; conditions: 0.5% [v/w] squalene diet between 2 and 12 weeks of age (FIG. 14b)
Description: (§1) Single-cell suspensions from spinal cords were obtained via mechanical dissociation on a cell strainer. Immune cells were separated over a two-phase Percoll-density gradient (70%/30%). Blood was collected by cardiac puncture in EDTA (80 mM) and single-cell suspension was obtained by centrifugation over lymphocyte separation medium (LSM 1077, PAA). Staining of abTCR/CD4 T cells, abTCR/CD8 T cells and CD45/CD11 b cells (macrophages/microglia) was performed using the following antibodies in a 1:200 dilution:Anti-CD3e (clone 145-2C11), BioLegend; anti-CD4 (clone GK 1.5), BD; anti-CD8 (clone 53-6.7), BD; […]; anti-CD11b (clone M1/70), BioLegend; anti-CD45.2 (clone 104), BioLegend. The addition of Calibrite APC beads (BD) allowed for cell quantification. Flow cytometry was performed using a FACSCalibur operated by Cell Quest software (Becton Dickinson).
(§2) Plp1 transgenic Plp1-tg, line #72 mice (Readhead et al., 1994, Stumpf, Berghoff et al., 2019) harbor three copies of the murine Plp1 gene. Dietary treatment was applied between 2 and 12 weeks of age.
(§3) Dietary supplementation with squalene (0.5% [v/w]).

[3] = test system: inflammatory cells in spinal cord tissue; assay: Flow cytometry of inflammatory cells per gram spinal cord in EAE; assay type: in vivo, mouse; conditions: peak of EAE disease (day 16), therapeutic squalene vs normal chow (FIG. 2)
[4] = test system: peripheral inflammatory cells; assay: Flow cytometry of peripheral inflammatory cells per ml blood in EAE; assay type: in vivo, mouse; conditions: peak of EAE disease (day 16), therapeutic squalene vs normal chow (FIG. 3a-c)
Description: as §1

[5] = test system: CD11b+ myeloid cells (microglia/macrophages); assay: RT-qPCR expression profile in MACS isolated CD11b+ myeloid cells of EAE mice; assay type: in vivo, mouse
Source text: Microglia/Macrophages were isolated according to the adult brain dissociation protocol (Miltenyi biotec). Spinal cord was isolated on ice followed by removal of meninges. Antibody labeling steps were done according to the respective antibody Microbead kit protocol (Miltenyi biotec), oligodendrocytes (04, 130-096-670) and microglia (CD11 b, 130-093-636).
(§4) For tissue expression analyses, spinal cord tissue was dissected from ˜Th10-˜L5. RNA was isolated using QIAshredder and RNeasy protocols (Qiagen). Concentration and quality of RNA was evaluated using a NanoDrop spectrophotometer and RNA Nano (Agilent). cDNA was synthesized with Superscript III (Invitrogen) and quantitative PCRs were done in triplicates with the GoTaq qPCR Master Mix (Promega) on a 7500 Fast Real-Time PCR System (Applied Biosystems). Expression values were normalized to the mean of three—five housekeeping genes, HPRT (Hypoxanthin-Phosphoribosyl-Transferase 1) and Rplp0 (60S acidic ribosomal protein P), Rps13 (Ribosomal Protein S13), Gapdh (Glyceraldehyde-3-Phosphate Dehydrogenase), 18S (18S ribosomal RNA) and quantification was done by applying the ΔΔCt method, normalized to age matched untreated controls (set to 1). All primers were intron-spanning.

[6] = test system: spinal cord tissue gene expression; assay: RT-qPCR expression profile in spinal cord lysates of EAE mice; assay type: in vivo, mouse; conditions: remission phase
Description: as §4

[7] = test system: MOG35-55 induced EAE animals; assay: Clinical score of MOG35-55 induced EAE animals; assay type: in vivo, mouse
Description: For MOG-EAE, mice purchased from Charles River were immunized subcutaneously with […] myelin oligodendrocyte glycoprotein peptide 35-55 (MOG35-55) in complete Freund's adjuvant (M. tuberculosis at 3.75 mg ml^−1) and i.p. injected twice with 500 ng pertussis toxin. Animals were examined daily and scored for clinical signs of the disease. […] The clinical score was: 0 normal; 0.5 loss of tail tip tone; 1 loss of tail tone; 1.5 ataxia, mild walking deficits (slip off the grid); 2 mild hind limb weakness, severe gait ataxia, twist of the tail causes rotation of the whole body; 2.5 moderate hind limb weakness, cannot grip the grid with hind paw, but able to stay on a upright tilted grid; 3 mild paraparesis, falls down from a upright tiled grid; 3.5 paraparesis of hind limbs (legs strongly affected, but move clearly); 4 paralysis of hind limbs, weakness in forelimbs; 4.5 forelimbs paralyzed; 5 moribund/dead. […] DMHCA (Avanti) was dissolved in corn oil (Sigma) and given therapeutically in chow at a dosage of 8 mg kg^−1. IFNβ1b (Bayer) was administrated by daily intraperitoneal (i.p.) injections 30.000 U per animal.

Plp1-tg mice = assay: Elevated beam test in Plp1-tg mice (Pelizaeus-Merzbacher disease model); assay type: in vivo, mouse; conditions: 0.5% [v/w] squalene diet between 2 and 12 weeks of age (FIG. 14a)
Source text: as §2, §3
To assess bilateral sensorimotor coordination that involves connecting white matter structures, elevated beam test (in-house made, MPI of experimental medicine) was applied. Mice were trained to run toward a hiding box on a beam (width 1.5 cm) one week before testing. In one testing session number of slips in a defined 55 cm distance over three repeats was counted. Mean number of slips after three testing sessions (8 weeks, 10 weeks and 12 weeks) was quantified.

myelinating co-cultures = assay: Myelinating co-culture in vitro (MBP area normalized to SM131 axons); assay type: cell-based; conditions: 100 μM squalene
Description: Myelinating co-cultures were established as described (Thomson, C. E. et al. 2008) with minor modifications. Briefly, E13 embryonic spinal cords were digested in 0.125% Trypsin solution in HBSS (without Ca^+2 and Mg^+2) at 37° C. for 20 min. After stopping the digestion with 1 ml plating media (DMEM, 25% horse serum, 25% HBSS, […] DNAse) the tissue was homogenized by gentle trituration and centrifuged for 5 min. 150,000 cells were plated per poly-L-lysine coated coverslip; 3 coverslips per 35 mm Petri dish. After cell attachment in plating media, differentiation media was added (low glucose DMEM, […] insulin, 10 ng ml^−1 biotin, 50 nM hydrocortisone, 0.5% N1-mix). N1 mix was 1 mg ml^−1 apo-transferrin, 20 mM putrescine, […] progesterone, and 6 mM sodium selenite. 50% media change was performed every 24-48 h with differentiation media. Squalene (100 μM) was added at day 3 to cultures. After 12 days, insulin was removed from differentiation media. […] Axonal (SM131) area and the area with myelin sheaths (MBP) of seven randomly chosen visual fields of myelinating co-cultures (×20 magnification) was measured by automated threshold with Fiji Software (SM131 Otsu, MBP Triangle). Specimens were analyzed on an Axiophot observer.Z1 (Zeiss) equipped with an AxioCam MRm and the ZEN 2012 blue edition software and evaluated with Image J software.

[8] = acute phase (15 days post immunization), prophylactic squalene vs chow (FIG. 5a)
[9] = prophylactic squalene vs chow fed controls (FIG. 4a)
[10] = prophylactic squalene vs chow fed controls (FIG. 4b)

CC(C)=CCCC(C)=CCC/C(C)=C/CC/C=C(\C)CC/C=C(\C)CCC=C(C)C (stereo in doubt) [squalene, (6E,10E,14E,18E)-2,6,10,15,19,23-hexamethyltetracosa-2,6,10,14,18,22-hexaene]
Number of CAII positive mature oligodendrocytes within lesion area ([1]; 0.5% [v/w] squalene chow from day of lesion induction vs control (FIG. 6b)): strongly increased
Degree of MBP positive myelinated axons within lesion area ([1]; 0.5% [v/w] squalene chow from day of lesion induction vs control (FIG. 6f)): strongly increased
Size of the lesion area (DAPI positive increased nuclear density) ([1]; 0.5% [v/w] squalene chow vs control (FIG. 6c)): comparable
Number of inflammatory cells per gram brain [2]: reduced number of inflammatory cells
Number of inflammatory cells per gram spinal cord [2]: reduced number of inflammatory cells
Number of CD11b+/CD45+ myeloid cells per gram spinal cord [3]: reduced numbers
Number of inflammatory CD4+ T cells per gram spinal cord [3]: reduced numbers
Number of inflammatory CD8+ T cells per gram spinal cord [3]: reduced numbers
Number of peripheral immune cells (abTCR/CD4+, abTCR/CD8+, CD45+/CD11b+) per ml blood [4]: did not observe differences
Expression levels of pro-inflammatory mediator genes such as TNF and IL1β [5, 8]: reduced expression levels
Expression of anti-inflammatory molecules such as TGFβ1 [5, 8]: increased expression
Expression of cholesterol export genes Abca1 and Apoe ([5]; acute phase, prophylactic squalene vs untreated control (FIG. 5b)): upregulated
Expression of cholesterol export genes (Abca1, Abcg1, Abcg4, Apoe, Clu) [6, 9]: significantly increased expression
Expression of cholesterol synthesis genes (Hmgc1, Hmgcr, Fdft1, Dhcr24, Cyp51a1, Mvk) [6, 9]: significantly increased expression
Expression of cholesterol uptake genes (Ldlr, Vldlr, Apobr, Lrp1, Lrp2) [6, 9]: significantly increased expression
Expression of genes related to myelination and oligodendrocyte differentiation (Plp1, Car2, Olig2, Pdgfra, Cspg4) [6, 9]: significantly increased expression
Expression of pro-inflammatory mediator genes [6, 10]: reduced expression
Gene expression of the anti-inflammatory molecules 1110 and Tgfb1 [6, 10]: significantly increased
Mean clinical score (EAE disease severity) ([7]; prophylactic regimen, 0.5% [v/w] squalene chow from 14 days before immunization (FIG. 1a, 1c)): ameliorate disease severity; also recorded: more effective prophylactic effect than the treatment of multiple sclerosis with interferon beta-1b
Mean clinical score (EAE disease severity) ([7]; therapeutic regimen, 0.5% [v/w] squalene chow from day of disease onset (FIG. 1b)): ameliorate disease severity
Mean clinical score (EAE disease severity) ([7]; therapeutic regimen, squalene 0.03% [v/w] (FIG. 10a, 10b)): Disease amelioration was already present
Mean clinical score (EAE disease severity), dose comparison ([7]; therapeutic regimen, squalene 0.03% [v/w], 0.5% [v/w] and 5% [v/w] (FIG. 10a)): dose depend
Clinical disease severity by elevated beam testing (number of slips) (Plp1-tg mice): high potential to ameliorate clinical disease severity
MBP positive area normalized to SM131 positive axons (myelinating co-cultures; 21 DIV (FIG. 7)): increased MBP positive area
MBP positive area normalized to SM131 positive axons (myelinating co-cultures; 30 DIV (FIG. 7)): increased MBP positive area
